Results taken from patent US20260286309A1, “DIFFERENTIATION OF IPSCS IN BIOREACTORS” (REPAIRON GMBH, priority 2022, published 2026).

Columns and labels:
iPSCs (TC1133) [1] = assay: Y27632 pretreatment before automatic passaging of iPSC aggregates in ambr15 suspension culture (Cultivation Optimization Run 08); type: cell-based, human
Description: The nucleocounter NC-200 offers fast and reliable assessment of cell number and viability. Furthermore, it is GMP-compliant and is used during the production stage. Single cell suspensions may be directly measured with the NC-200, whereas suspensions with high content of cell clumps should be treated according to special protocols, supplied with the NC-200. These protocols include cell lysis to ensure distinguishability of single nuclei. However, large iPSC aggregates of about 70-250 μm, which were obtained in the suspension culture, could not be sufficiently lysed with the provided protocols within a reasonable time. Therefore, iPSC aggregates were digested using TrypLE before measurement with the NC-200. […] This suspension was then used for measurement with the NC-200 using the “Viability and Cell Count—A100 and B Assay” intended for small cell aggregates.
The pluripotency state of iPSCs was assessed by analyzing the pluripotency-related markers NANOG, TRA-1-60, and OCT4 using flow cytometry. iPSC aggregates were digested with TrypLE to achieve a near singe cell suspension. Subsequently the cells were fixed by adding Histofix to the cell suspension in a 1:1 ratio (resulting in 2% PFA). For analysis, the cells were stained with fluorochrome-conjugated antibodies. Dead cells were excluded from the analysis with Hoechst staining. Accordingly, the expression of a-Actinin and cTNT was analyzed to assess the success of cardiac differentiation.
The aggregate size was analyzed using a Cellavista device. Culture samples were transferred into a 24-well plate prepared with PBS (—Ca2+/—Mg2+) and measured with the Cellavista. Images were processed by the Cellavista software by applying a threshold to discriminate aggregates from background. The software FIJI (Schindelin et al., 2012) was subsequently used to analyze aggregate size.
To increase the degree of reaggregation, pretreatment with ROCK inhibitor Y27632 was tested. Pretreatment of iPSCs with Y27632 has been reported for other procedures that require cell singularization and are stressful for iPSCs (Chatterjee et al., 2011). […]

iPSCs (TC1133) [2] = assay: Cardiac differentiation of iPSCs in suspension (ambr15, 2-factor protocol CHIR/IWP4); type: cell-based, human
Description: The cardiac differentiation potential of iPSCs after long-term culture was assessed by direct differentiation into iPSC-CMs using a published 2-factor protocol (Chen et al., 2015). iPSC aggregates were differentiated in the ambr15 system and the medium was exchanged manually. Briefly, the basal medium on day 0-5 consisted of RPMI 1640+2% B-27 supplement without insulin. From day 6 onwards the basal medium was RPMI 1640+2% b-27 supplement. To initiate mesodermal differentiation, CHIR was added in varying concentrations on day 1. 5 μM IWP4 was added on day 2 and 3 or day 3 and 4 to initiate cardiac differentiation. A main goal of this project was to ensure that the cardiac differentiation potential remains in iPSCs that are cultivated with the developed expansion strategy. The cardiac differentiation potential was assessed by using a published protocol for the directed cardiac differentiation of PSCs in suspension culture (Chen et al., 2015). iPSCs in suspension were successfully differentiated into iPSC-CMs during early passages (Cultivation Optimization Run 12) and during late passages (Cultivation Optimization Run 13) of long-term cultures. Thereby, proof of concept was shown that iPSCs generated with the developed expansion strategy can be used to produce iPSC-CMs in suspension culture.

## C[C@@H](N)[C@H]1CC[C@H](C(=O)Nc2ccncc2)CC1 [Y27632]
iPSCs (TC1133) [1]; day 3, passage 1, flow cytometry, Y27632 pretreatment
  expression of NANOG: 93%
iPSCs (TC1133) [1]; day 5, passage 1, 10 μM Y27632 pretreatment, Versene passaging
  expansion rate: 9 fold
iPSCs (TC1133) [1]; passage 1, Y27632 pretreatment
  aggregate size (mean): 162 μm

## Cc1c[nH]c(-c2cnc(NCCNc3ccc(C#N)cn3)nc2-c2ccc(Cl)cc2Cl)n1 [CHIR, CHIR99021]
iPSCs (TC1133) [2]; iPSCs of earlier passages (passage 0)
  optimal concentration for successful cardiac differentiation: 6 µM
iPSCs (TC1133) [2]; iPSCs of later passages (passage 8)
  optimal concentration for successful cardiac differentiation: 18 µM
